Experimental data reported in ChEMBL document CHEMBL4840337, “A Potent Fluorescent Reversible-Covalent Inhibitor of Cardiac Muscle Contraction” (ACS Med Chem Lett, 2021).
Calls of active or inactive are those of the source. The calls are words filed in the database; no cut-off is given here.

Columns and labels:
Homo sapiens [1] = species on record: Homo sapiens; test: Binding affinity to BME-bound [15N]-labelled cNTnC (1 to 90 residues)- cTnI (136 to 163 residues) C35S mutant chimeric protein (unknown origin) expressed in Escherichia coli BL21 (DE3) up to 60 uM by 2D 1H, 15N HSQC NMR spectroscopy analysis; settings: dose microM <=60
[2] = Stability of the compound in NMR buffer at 50 uM in the absence of DTT measured after 40 hrs at 30 degC by 1D H-NMR analysis; assay type: physicochemical
[3] = Inhibition of actomyosin ATPase activity in bovine cardiac myofibrils assessed as reduction in inorganic phosphate release using ATP as substrate preincubated for 30 mins in presence of pCa 4.5 followed by substrate addition by malachite green based assay; parameters: species or system Bos taurus
Bos taurus [4] = species on record: Bos taurus; test: Inhibition of actomyosin ATPase activity in bovine cardiac myofibrils assessed as reduction in inorganic phosphate release using ATP as substrate preincubated for 30 mins in presence of pCa 9 followed by substrate addition by malachite green based assay
[5] = Aqueous solubility of the compound by 1D H-NMR spectroscopy analysis; assay type: physicochemical
[6] = Drug degradation assessed as new spectra with MW of 404 Da formation at 40 uM measured after incubation of 8-month old compound with [15N]-labelled cNTnC (1 to 90 residues)-cTnI (136 to 163 residues) C35S mutant chimeric protein (unknown origin) by 2D 1H, 15N HSQC NMR spectroscopy analysis; assay type: ADME
[7] = Binding affinity to calcium saturated His tagged cNTnC (1 to 90 residues)- cTnI (136 to 163 residues) C35S mutant chimeric protein (unknown origin) assessed as dissociation constant by flourescence spectroscopy analysis; parameters: species or system Homo sapiens
[8] = Covalent binding affinity to [15N]-labelled cNTnC (1 to 90 residues)- cTnI (136 to 163 residues) C35S mutant chimeric protein (unknown origin) expressed in Escherichia coli BL21 (DE3) assessed as dissociation constant by 2D 1H, 15N HSQC NMR spectroscopy analysis; parameters: species or system Homo sapiens
Homo sapiens [9] = species on record: Homo sapiens; test: Binding affinity to BME-bound [15N]-labelled cNTnC (1 to 90 residues)- cTnI (136 to 163 residues) C35S mutant chimeric protein (unknown origin) expressed in Escherichia coli BL21 (DE3) up to 60 uM in the presence of DTT by 2D 1H, 15N HSQC NMR spectroscopy analysis; settings: dose microM <=60
Homo sapiens [10] = species on record: Homo sapiens; test: Binding affinity to [15N]-labelled cNTnC (1 to 90 residues)- cTnI (136 to 163 residues) A-Cys chimeric protein harboring C35S/C84S double mutant (unknown origin) assessed as NMR fast exchange by 2D 1H, 15N HSQC NMR spectroscopy analysis
Bos taurus [11] = species on record: Bos taurus; test: Inhibition of actomyosin ATPase activity in bovine cardiac myofibrils assessed as reduction in inorganic phosphate release using ATP as substrate preincubated for 30 mins in presence of pCa 6 followed by substrate addition by malachite green based assay
[12] = Binding affinity to calcium saturated His-tagged cNTnC (1 to 90 residues)- cTnI (136 to 163 residues) A-Cys chimeric protein harboring C35S/C84S double mutant (unknown origin) assessed as dissociation constant by flourescence spectroscopy analysis; parameters: species or system Homo sapiens
[13] = Aqueous solubility of the compound by fluorescence spectroscopy analysis; assay type: physicochemical
[14] = Drug degradation assessed as new spectra with MW of 202 Da formation at 40 uM measured after incubation of 8-month old compound with [15N]-labelled cNTnC (1 to 90 residues)-cTnI (136 to 163 residues) C35S mutant chimeric protein (unknown origin) by 2D 1H, 15N HSQC NMR spectroscopy analysis; assay type: ADME
[15] = Reactivity with dithiothreitol in NMR buffer at 50 uM measured up to 24 hrs by 1D H-NMR analysis; settings: time hrs <=24

Activity (Homo sapiens [1]): inactive
Stability [2]: Stable
IC50 [3]: 11 nM
inhibition (Bos taurus [4]): inactive
solubility [5]: < 50 µM
Drug degradation [6]: Active
Kd [7]: 56 nM
Activity (Homo sapiens [9]): Active
Activity (Homo sapiens [10]): inactive
inhibition (Bos taurus [11]): Active
Kd [12]: 45 nM
solubility [13]: < 50 µM
Drug degradation [14]: Active
Activity [15]: Active
SMILES: N#C/C(=C\c1ccc(N(c2ccccc2)c2ccccc2)cc1)C(=O)O
Kd [8]: < 500 nM
